Paper PMC4110683 (Chemistry and physics of lipids, 2013)
≈ marks a conversion by molar mass, not a printed value. Where two headings read alike, the source gives them in different places.

Tests used:
M. smegmatis mc^2 155 = settings: ref Morbidoni et al., 2006; cited from earlier work
Bacteroides fragilis = settings: ref Konthikamee et al., 1982; cited from earlier work
Neisseria flava = settings: ref Konthikamee et al., 1982; cited from earlier work
[1] = test system: hepatoma 7288 (HTC) cells; settings: ref Upreti et al., 1981; cited from earlier work
PfFabI [2] = target: T1, PfFabI (Plasmodium falciparum, UniProt Q9BH77); settings: with respect to crotonyl-CoA and the cofactor NADH; ref Tasdemir et al., 2010; cited from earlier work
T1 sequence (Q9BH77 22-432): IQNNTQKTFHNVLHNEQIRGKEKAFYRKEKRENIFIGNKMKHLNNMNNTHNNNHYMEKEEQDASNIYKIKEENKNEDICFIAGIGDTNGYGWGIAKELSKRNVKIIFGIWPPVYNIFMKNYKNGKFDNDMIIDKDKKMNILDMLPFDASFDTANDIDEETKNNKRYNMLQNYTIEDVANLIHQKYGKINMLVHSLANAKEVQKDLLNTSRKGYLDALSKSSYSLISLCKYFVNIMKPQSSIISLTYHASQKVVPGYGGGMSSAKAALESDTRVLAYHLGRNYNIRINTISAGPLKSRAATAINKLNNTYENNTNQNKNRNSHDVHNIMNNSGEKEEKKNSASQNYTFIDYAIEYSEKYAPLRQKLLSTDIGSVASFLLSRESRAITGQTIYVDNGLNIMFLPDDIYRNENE

Staphylococcus aureus = settings: ref Konthikamee et al., 1982; cited from earlier work
P. falciparum K1 [3] = assay: Toxicity to P. falciparum K1 strain; type: cell-based, Plasmodium falciparum; settings: Plasmodium falciparum, K1, read-out: IC50 P. falciparum K1
Escherichia coli = settings: in words; ref Konthikamee et al., 1982; cited from earlier work
hTopIB [4] = target: T2, hTopIB (Homo sapiens, UniProt P11387); assay: Inhibition of relaxation activity of hTopIB; type: biochemical
T2 sequence (P11387 1-765): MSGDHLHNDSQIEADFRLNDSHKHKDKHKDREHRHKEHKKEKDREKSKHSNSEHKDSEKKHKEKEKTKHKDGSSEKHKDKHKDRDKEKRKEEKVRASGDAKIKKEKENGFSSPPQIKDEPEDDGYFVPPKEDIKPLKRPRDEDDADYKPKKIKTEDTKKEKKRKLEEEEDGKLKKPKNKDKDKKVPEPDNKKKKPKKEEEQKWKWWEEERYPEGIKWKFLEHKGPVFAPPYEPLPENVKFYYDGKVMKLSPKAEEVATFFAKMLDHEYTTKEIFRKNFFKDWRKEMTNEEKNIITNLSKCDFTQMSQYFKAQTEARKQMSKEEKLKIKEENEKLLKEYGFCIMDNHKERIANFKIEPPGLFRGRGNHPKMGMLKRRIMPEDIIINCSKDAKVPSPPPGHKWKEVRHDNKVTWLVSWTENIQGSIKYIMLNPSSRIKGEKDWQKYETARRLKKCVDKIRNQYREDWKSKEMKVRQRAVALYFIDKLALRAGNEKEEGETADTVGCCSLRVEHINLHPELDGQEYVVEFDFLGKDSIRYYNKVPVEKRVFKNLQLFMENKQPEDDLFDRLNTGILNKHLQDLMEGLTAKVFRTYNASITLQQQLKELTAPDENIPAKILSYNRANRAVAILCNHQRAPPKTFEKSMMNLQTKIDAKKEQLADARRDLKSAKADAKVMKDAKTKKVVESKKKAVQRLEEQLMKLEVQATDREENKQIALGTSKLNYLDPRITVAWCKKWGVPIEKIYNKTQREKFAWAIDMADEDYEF

PfFabG = PfFabG (Plasmodium falciparum, UniProt Q8I2S7); assay: biochemical
Pseudomonas aeruginosa = settings: in words; ref Konthikamee et al., 1982; cited from earlier work
PfFabZ [5] = target: T3, PfFabZ (Plasmodium falciparum, UniProt Q965D7); settings: with respect to the substrate; ref Tasdemir et al., 2010; cited from earlier work
T3 sequence (Q965D7 19-230): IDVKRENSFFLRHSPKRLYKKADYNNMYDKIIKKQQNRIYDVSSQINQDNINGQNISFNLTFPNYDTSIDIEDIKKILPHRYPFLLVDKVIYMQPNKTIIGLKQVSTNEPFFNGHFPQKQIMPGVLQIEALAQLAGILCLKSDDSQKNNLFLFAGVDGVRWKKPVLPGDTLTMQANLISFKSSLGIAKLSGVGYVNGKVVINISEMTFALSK

[6] = test system: Leishmania infantum promastigotes; settings: read-out: IC50 Leishmania infantum promastigotes; ref Carballeira et al., 2012; cited from earlier work
PfFabI [7] = target: T1, PfFabI; assay: Inhibition of PfFabI; type: biochemical
[8] = test system: BALB/c murine macrophages; settings: read-out: Murine macrophages BALB/c IC50; ref Carballeira et al., 2012; cited from earlier work
LdTopIB = settings: ref Carballeira et al., cited from earlier work
[9] = test system: Mycobacterium tuberculosis H37Rv; settings: ref Morbidoni et al., 2006; cited from earlier work
hTopIB [10] = target: T2, hTopIB; settings: read-out: hTopIB EC50; relaxation activity; ref Carballeira et al., 2012; cited from earlier work
[11] = test system: InhA, the enoyl-ACP reductase; settings: in words; ref Morbidoni et al., 2006; cited from earlier work
[12] = test system: L. donovani promastigotes; settings: cited from earlier work; for IC50: read-out: IC50 L. donovani promastigotes, 2012; for IC50 / EC50 L. donovani promastigotes / Effectiveness towards L. donovani: ref Carballeira et al.; for EC50 L. donovani promastigotes / Effectiveness towards L. donovani: 2009; for Motility of L. donovani promastigotes: at levels of 100 μg/mL, ref Cunningham et al., 1972; for Motility of L. donovani promastigotes / Effectiveness towards L. donovani: in words; for MIC L. donovani promastigotes: ref Chaudhuri et al., 1986
PfFabZ [13] = target: T3, PfFabZ; assay: Inhibition of PfFabZ; type: biochemical
[14] = test system: FCR3 strain of P. falciparum; settings: ref Krugliak et al., 1995; cited from earlier work
P. falciparum = settings: in words; ref Kumaratilake et al., 1992; 1997; cited from earlier work
P. falciparum K1 [15] = settings: ref Suksamrarn et al., 2005; cited from earlier work
[16] = read-out: LdTopIB EC50, relaxation activity, 2012

Compound: CCCCCCCCCCCCCCCCCCCC#CC(=O)O [2-Docosynoic acid]
- MIC against M. smegmatis mc^2 155 (M. smegmatis mc^2 155): >300 µM

Compound: CCCCCCCCCC#CC(=O)O [2-Dodecynoic acid]
- MIC against M. smegmatis mc^2 155 (M. smegmatis mc^2 155): >300 µM

Compound: CCCCCCCCCCCCCCCCCC#CC(=O)O [2-Eicosynoic acid]
- MIC against M. smegmatis mc^2 155 (M. smegmatis mc^2 155): >300 µM

Compound: CCCCCCCCCCCCCC#CC(=O)O [2-HDA, 2-hexadecynoic acid]
- MIC Bacteroides fragilis (Bacteroides fragilis): 21.4 µM (≈ 5.4 µg/mL)
- MIC Neisseria flava (Neisseria flava): 21.4 µM (≈ 5.4 µg/mL)
- MIC against M. smegmatis mc^2 155 (M. smegmatis mc^2 155): 10 µM (≈ 2.52 µg/mL)
- LD50, growth of cultured hepatoma 7288 (HTC) cells [1]: 35 to 85 µM
- Mode of inhibition of PfFabI (PfFabI [2]): non-competitive
- MIC Staphylococcus aureus (Staphylococcus aureus): 21.4 µM (≈ 5.4 µg/mL)
- IC50 (P. falciparum K1 [3]): 41.2 µM
- Effectiveness against Escherichia coli (Escherichia coli): not effective
- IC50 (hTopIB [4]): 361 ± 1 µM
- IC50 (PfFabG; read-out: IC50 PfFabG, Carballeira and Tasdemir, unpublished data): 13.9 µM
- Effectiveness against Pseudomonas aeruginosa (Pseudomonas aeruginosa): not effective
- Mode of inhibition of PfFabZ (PfFabZ [5]): competitively inhibit
- IC50 [6]: 14.9 µM
- IC50 (PfFabI [7]; read-out: IC50 PfFabI, Carballeira and Tasdemir, unpublished data): 1.5 µM
- IC50 [8]: > 100 µM
- EC50 (LdTopIB; [16]): 28.7 ± 1.3 µM
- MIC against Mycobacterium tuberculosis H37Rv [9]: 20 to 25 µM
- EC50 (hTopIB [10]): > 100 µM
- Inhibition of InhA [11]: able to inhibit
- IC50 [12]: 17.8 µM

Compound: CCCCCCCCCCCCCCCCC#CC(=O)O [2-Nonadecynoic acid]
- MIC against M. smegmatis mc^2 155 (M. smegmatis mc^2 155): 35 µM (≈ 10.3 µg/mL)
- MIC against Mycobacterium tuberculosis H37Rv [9]: 20 to 25 µM

Compound: CCCCCCCCCCCC#CC(=O)O [2-TDA, 2-tetradecynoic acid]
- MIC against M. smegmatis mc^2 155 (M. smegmatis mc^2 155): 266 µM (≈ 59.7 µg/mL)
- IC50 (P. falciparum K1 [3]): 122 µM
- IC50 (PfFabG): 24.5 µM
- IC50 (PfFabZ [13]): 15.6 µM
- IC50 (PfFabI [7]): 5.3 µM
- IC50 [8]: > 100 µM
- EC50 (LdTopIB; [16]): 67.8 ± 1.1 µM
- EC50 (hTopIB [10]): > 100 µM
- IC50 [12]: 24.7 µM

Compound: CCCCCCCCCCCCC#CCC(=O)O [3-Hexadecynoic acid]
- MIC against M. smegmatis mc^2 155 (M. smegmatis mc^2 155): 20 µM (≈ 5.05 µg/mL)

Compound: CCCCCCCCCCCCCCC#CCC(=O)O [3-Octadecynoic acid]
- MIC against M. smegmatis mc^2 155 (M. smegmatis mc^2 155): 36 µM (≈ 10.1 µg/mL)

Compound: CCCCCCCCCCCC#CCCC(=O)O [4-Hexadecynoic acid]
- MIC against M. smegmatis mc^2 155 (M. smegmatis mc^2 155): 30 µM (≈ 7.57 µg/mL)

Compound: CCCCCCCCCCCCCC#CCCC(=O)O [4-Octadecynoic acid]
- MIC against M. smegmatis mc^2 155 (M. smegmatis mc^2 155): >300 µM

Compound: CCCCCCCCCCC#CCCCC(=O)O [5-Hexadecynoic acid]
- MIC against M. smegmatis mc^2 155 (M. smegmatis mc^2 155): 80 µM (≈ 20.2 µg/mL)

Compound: CCCCCCCCCCCCC#CCCCC(=O)O [5-Octadecynoic acid]
- MIC against M. smegmatis mc^2 155 (M. smegmatis mc^2 155): 360 µM (≈ 101 µg/mL)

Compound: CCCCCCCCCCC#CCCCCC(=O)O [6-heptadecynoic, 6-heptadecynoic acid]
- EC50 L. donovani promastigotes [12]: 1 to 6 µg/mL

Compound: CCCCCCCCCCCCCC#CCCCCC(=O)O [6-icosynoic acid]
- EC50 (LdTopIB; read-out: EC50 LdTopIB, 2009): 36 to 49 µM
- EC50 L. donovani promastigotes [12]: 1 to 6 µg/mL

Compound: CCCCCCCCCCCCCCCC(=O)O [16:0, hexadecanoic acid, reference compound]
- IC50 (P. falciparum K1 [3]): > 100 µM
- IC50 (PfFabG): > 100 µM
- IC50 (PfFabZ [13]): > 100 µM
- IC50 (PfFabI [7]): > 100 µM
- Motility of L. donovani promastigotes [12]: inhibited the motility

Compound: CC[C@@]1(O)C(=O)OCc2c1cc1n(c2=O)Cc2cc3ccccc3nc2-1 [CPT, camptothecin, reference compound]
- IC50 [8]: 0.62 ± 0.13 µM
- EC50 (LdTopIB; [16]): 0.67 ± 0.08 µM

Compound: CCCCC/C=C\C/C=C\CCCCCCCC(=O)O [linoleic acid]
- IC50 killing FCR3 strain of P. falciparum [14]: 76 µg/mL

Compound: CC/C=C\C/C=C\C/C=C\CCCCCCCC(=O)O [linolenic acid]
- IC50 killing FCR3 strain of P. falciparum [14]: 92 µg/mL

Compound: CCCCCCCCCC(=O)O [n-decanoic acid]
- Motility of L. donovani promastigotes [12]: inhibited the motility

Compound: CCCCCCCCCCCC(=O)O [n-dodecanoic acid]
- Motility of L. donovani promastigotes [12]: inhibited the motility

Compound: CCCCCCCCCCCCCCCCCCCC(=O)O [n-eicosanoic acid, reference compound]
- Effectiveness towards L. donovani [12]: not effective

Compound: CCCCCCCCCCCCCCCCC(=O)O [n-heptadecanoic acid, reference compound]
- Effectiveness towards L. donovani [12]: not effective

Compound: CCCCCCCCCCCCCCCCCC(=O)O [octadecanoic acid]
- MIC L. donovani promastigotes [12]: 1390 µM (≈ 395 µg/mL)

Compound: CCCCCCCC/C=C\CCCCCCCC(=O)O [oleic acid, 9-cis-Octadecenoic acid, reference compound]
- Parasite killing of P. falciparum (P. falciparum): negligible parasite killing
- IC50 killing FCR3 strain of P. falciparum [14]: 23 µg/mL
- Motility of L. donovani promastigotes [12]: no effect
- MIC L. donovani promastigotes [12]: 90 µM (≈ 25.4 µg/mL)

Compound: C=CCCC#CCCCCCCCCCCCC(=O)O [scleropyric acid]
- IC50 K1 multidrug-resistant P. falciparum (P. falciparum K1 [15]): 7.2 µg/mL (≈ 25.9 µM)
